Data reported in US9079866B2, “Flap modulators” (JANSSEN PHARMACEUTICA NV, priority 2013, dated 2015).

Columns and labels:
[1] = test system: leukotriene pathway in human whole blood (LTB4 levels); test: Human whole blood assay (A23187-stimulated LTB4); type: cell-based; details: Homo sapiens, human whole blood diluted 1:1 in RPMI, A23187-stimulated LTB4; read-out: LTB4 IC50 1:1
How it was run: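 Blood (heparin) diluted 1:1 RPMI; compound pre-incubation 15 min, 37° Celsius; A23187 7 μg/mL, 30 min, 37° Celsius; plasma LTB4 by commercial kit. IC50 via 4-parameter equation.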

human FLAP = human FLAP (Homo sapiens (Human), UniProt P20292); test: FLAP binding assay (HTRF format); details: human FLAP wild type, HTRF format; average of two plates, duplicates
How it was run: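 Samples were run in duplicate on each of two assay plates, the results were averaged, and the signal was expressed as an HTRF ratio.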

Sequence of human FLAP (P20292 whole entry): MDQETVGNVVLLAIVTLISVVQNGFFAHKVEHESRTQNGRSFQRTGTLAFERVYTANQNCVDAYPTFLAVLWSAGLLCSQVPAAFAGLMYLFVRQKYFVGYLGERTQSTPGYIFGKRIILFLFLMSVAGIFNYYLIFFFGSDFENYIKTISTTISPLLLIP

IC50 [1] [nM] | Ki (human FLAP) [nM] | SMILES
8 | 1 | Nc1cnc(-c2ccc(-c3ccccc3S(=O)(=O)N3CCC(CCO)CC3)cc2F)cn1 [Example 69, 2-(1-{[4′-(5-Aminopyrazin-2-yl)-3′-fluorobiphenyl-2-yl]sulfonyl}piperidin-4-yl)ethanol]
168 | 111 | CNC1CCN(S(=O)(=O)c2ccccc2-c2ccc(-c3cnc(N)cn3)c(F)c2)CC1 [Example 72, 5-(3-Fluoro-2′-{[4-(methylamino)piperidin-1-yl]sulfonyl}biphenyl-4-yl)pyrazin-2-amine]
77 | 62 | CN(C)C1CCN(S(=O)(=O)c2ccccc2-c2ccc(-c3cnc(N)cn3)c(F)c2)CC1 [Example 73, 5-(2′-{[4-(Dimethylamino)piperidin-1-yl]sulfonyl}-3-fluorobiphenyl-4-yl)pyrazin-2-amine]
185 | 12 | CC(=O)NC1CCN(S(=O)(=O)c2ccccc2-c2ccc(-c3cnc(N)cn3)c(F)c2)CC1 [Example 75, N-(1-{[4′-(5-Aminopyrazin-2-yl)-3′-fluorobiphenyl-2-yl]sulfonyl}piperidin-4-yl)acetamide]
166 | 1 | Nc1cnc(-c2ccc(-c3ccccc3S(=O)(=O)N[C@@H](CO)[C@@H](O)c3ccccc3)cc2F)cn1 [Example 78, 4′-(5-Aminopyrazin-2-yl)-3′-fluoro-N-[(1S,2S)-2-hydroxy-1-(hydroxymethyl)-2-phenylethyl]biphenyl-2-sulfonamide]
150 | 5 | CC(C)C[C@@H](CO)NS(=O)(=O)c1ccccc1-c1ccc(-c2cnc(N)cn2)c(F)c1 [Example 79, 4′-(5-Aminopyrazin-2-yl)-3′-fluoro-N-[(1S)-1-(hydroxymethyl)-3-methylbutyl]biphenyl-2-sulfonamide]
152 | 6 | Nc1cnc(-c2ccc(-c3ccccc3S(=O)(=O)N[C@H](CO)c3ccccc3)cc2F)cn1 [Example 81, 4′-(5-Aminopyrazin-2-yl)-3′-fluoro-N-[(1S)-2-hydroxy-1-phenylethyl]biphenyl-2-sulfonamide]
18 | 1 | Nc1cnc(-c2ccc(-c3ccccc3S(=O)(=O)N[C@@H](CO)c3ccccc3)cc2F)cn1 [Example 82, 4′-(5-Aminopyrazin-2-yl)-3′-fluoro-N-[(1R)-2-hydroxy-1-phenylethyl]biphenyl-2-sulfonamide]
97 | 3 | CC[C@H](C)[C@@H](CO)NS(=O)(=O)c1ccccc1-c1ccc(-c2cnc(N)cn2)c(F)c1 [Example 84, 4′-(5-Aminopyrazin-2-yl)-3′-fluoro-N-[(1S,2S)-1-(hydroxymethyl)-2-methylbutyl]biphenyl-2-sulfonamide]
20 | 2 | Nc1cnc(-c2ccc(-c3ccccc3S(=O)(=O)N[C@@H]3CCCC[C@H]3O)cc2F)cn1 [Example 85, 4′-(5-Aminopyrazin-2-yl)-3′-fluoro-N-[(1R,2R)-2-hydroxycyclohexyl]biphenyl-2-sulfonamide]
27 | 3 | CC[C@H](CO)NS(=O)(=O)c1ccccc1-c1ccc(-c2cnc(N)cn2)c(F)c1 [Example 86, 4′-(5-Aminopyrazin-2-yl)-3′-fluoro-N-[(1R)-1-(hydroxymethyl)propyl]biphenyl-2-sulfonamide]
75 | 3 | Nc1cnc(-c2ccc(-c3ccccc3S(=O)(=O)N[C@@H]3CCCC[C@@H]3O)cc2F)cn1 [Example 87, 4′-(5-Aminopyrazin-2-yl)-3′-fluoro-N-[(1R,2S)-2-hydroxycyclohexyl]biphenyl-2-sulfonamide]
36 | 7 | Nc1cnc(-c2ccc(-c3ccccc3S(=O)(=O)NCCO)cc2F)cn1 [Example 88, 4′-(5-Aminopyrazin-2-yl)-3′-fluoro-N-(2-hydroxyethyl)biphenyl-2-sulfonamide]
43 | 6 | Nc1cnc(-c2ccc(-c3ccccc3S(=O)(=O)NC3CC3)cc2F)cn1 [Example 89, 4′-(5-Aminopyrazin-2-yl)-N-cyclopropyl-3′-fluorobiphenyl-2-sulfonamide]
12 | 1 | Nc1cnc(-c2ccc(-c3ccccc3S(=O)(=O)NCC3CC3)cc2F)cn1 [Example 90, 4′-(5-Aminopyrazin-2-yl)-N-(cyclopropylmethyl)-3′-fluorobiphenyl-2-sulfonamide]
28 | 5 | Nc1cnc(-c2ccc(-c3ccccc3S(=O)(=O)N3CCC[C@@H]3CO)cc2F)cn1 [Example 91, (R)-(1-((4′-(5-Aminopyrazin-2-yl)-3′-fluoro-[1,1′-biphenyl]-2-yl)sulfonyl)pyrrolidin-2-yl)methanol]
53 | 10 | Nc1cnc(-c2ccc(-c3ccccc3S(=O)(=O)N3CCC[C@H]3CO)cc2F)cn1 [Example 95, (S)-(1-((4′-(5-Aminopyrazin-2-yl)-3′-fluoro-[1,1′-biphenyl]-2-yl)sulfonyl)pyrrolidin-2-yl)methanol]

IC50 [1] [nM] | Ki (human FLAP) [nM] | SMILES
42 | 8 | C[C@@H](O)CNS(=O)(=O)c1ccccc1-c1ccc(-c2cnc(N)cn2)c(F)c1 [Example 97, (R)-4′-(5-aminopyrazin-2-yl)-3′-fluoro-N-(2-hydroxypropyl)-[1,1′-biphenyl]-2-sulfonamide]
39 | 8 | C[C@H](O)CNS(=O)(=O)c1ccccc1-c1ccc(-c2cnc(N)cn2)c(F)c1 [Example 98, (S)-4′-(5-aminopyrazin-2-yl)-3′-fluoro-N-(2-hydroxypropyl)-[1,1′-biphenyl]-2-sulfonamide]
30 | 2 | Nc1cnc(-c2ccc(-c3ccccc3S(=O)(=O)NCC3(O)CCCCC3)cc2F)cn1 [Example 99, 4′-(5-Aminopyrazin-2-yl)-3′-fluoro-N-[(1-hydroxycyclohexyl)methyl]biphenyl-2-sulfonamide]
24 | 1 | CC(C)(CO)NS(=O)(=O)c1ccccc1-c1ccc(-c2cnc(N)cn2)c(F)c1 [Example 100, 4′-(5-Aminopyrazin-2-yl)-3′-fluoro-N-(2-hydroxy-1,1-dimethylethyl)biphenyl-2-sulfonamide]
14 | 2 | CC(C)(O)CNS(=O)(=O)c1ccccc1-c1ccc(-c2cnc(N)cn2)c(F)c1 [Example 101, 4′-(5-Aminopyrazin-2-yl)-3′-fluoro-N-(2-hydroxy-2-methylpropyl)biphenyl-2-sulfonamide]
> 1000 | 12 | Nc1cnc(-c2ccc(-c3ccccc3S(=O)(=O)NC[C@H](O)CO)cc2F)cn1 [Example 104, (S)-4′-(5-Aminopyrazin-2-yl)-N-(2,3-dihydroxypropyl)-3′-fluoro-[1,1′-biphenyl]-2-sulfonamide]
481 | 25 | Nc1cnc(-c2ccc(-c3ccccc3S(=O)(=O)NC[C@@H](O)CO)cc2F)cn1 [Example 105, (R)-4′-(5-Aminopyrazin-2-yl)-N-(2,3-dihydroxypropyl)-3′-fluoro-[1,1′-biphenyl]-2-sulfonamide]
132 | 16 | Nc1cnc(-c2ccc(-c3ccccc3S(=O)(=O)N[C@H]3CCNC3=O)cc2F)cn1 [Example 107, (S)-4′-(5-Aminopyrazin-2-yl)-3′-fluoro-N-(2-oxopyrrolidin-3-yl)-[1,1′-biphenyl]-2-sulfonamide]
49 | 10 | Nc1cnc(-c2ccc(-c3ccccc3S(=O)(=O)N[C@H]3CCCNC3=O)cc2F)cn1 [Example 108, (S)-4′-(5-Aminopyrazin-2-yl)-3′-fluoro-N-(2-oxopiperidin-3-yl)-[1,1′-biphenyl]-2-sulfonamide]
18 | 1 | CC(C)[C@H](CO)NS(=O)(=O)c1ccccc1-c1ccc(-c2cnc(N)cn2)c(F)c1 [Example 109, (R)-4′-(5-Aminopyrazin-2-yl)-3′-fluoro-N-[1-(hydroxymethyl)-2-methylpropyl]biphenyl-2-sulfonamide]
29 | 3 | Nc1cnc(-c2ccc(-c3ccccc3S(=O)(=O)N[C@H]3CC[C@H](O)CC3)cc2F)cn1 [Example 110, 4′-(5-Aminopyrazin-2-yl)-3′-fluoro-N-(4-hydroxycyclohexyl)biphenyl-2-sulfonamide]
58 | 4 | Nc1cnc(-c2ccc(-c3ccccc3S(=O)(=O)N3CC[C@@H](CO)C3)cc2F)cn1 [Example 111, (R)-(1-((4′-(5-Aminopyrazin-2-yl)-3′-fluoro-[1,1′-biphenyl]-2-yl)sulfonyl)pyrrolidin-3-yl)methanol]
154 | 7 | Nc1cnc(-c2ccc(-c3ccccc3S(=O)(=O)N3CC[C@H](CO)C3)cc2F)cn1 [Example 112, (S)-(1-{[4′-(5-Aminopyrazin-2-yl)-3′-fluorobiphenyl-2-yl]sulfonyl}pyrrolidin-3-yl)methanol]
145 | 10 | Nc1cnc(-c2ccc(-c3ccccc3S(=O)(=O)N[C@@H]3CCCNC3=O)cc2F)cn1 [Example 113, (R)-4′-(5-Aminopyrazin-2-yl)-3′-fluoro-N-(2-oxopiperidin-3-yl)biphenyl-2-sulfonamide]
221 | 12 | CN([C@@H]1CCCNC1)S(=O)(=O)c1ccccc1-c1ccc(-c2cnc(N)cn2)c(F)c1 [Example 114, (R)-4′-(5-Aminopyrazin-2-yl)-3′-fluoro-N-methyl-N-piperidin-3-ylbiphenyl-2-sulfonamide]
108 | 4 | CN([C@H]1CCCNC1)S(=O)(=O)c1ccccc1-c1ccc(-c2cnc(N)cn2)c(F)c1 [Example 115, (S)-4′-(5-Aminopyrazin-2-yl)-3′-fluoro-N-methyl-N-piperidin-3-ylbiphenyl-2-sulfonamide]
